Measured values taken from patent US11766414B2, “Compositions, delivery systems, and methods useful in tumor therapy” (Indi Molecular, Inc., priority 2020, dated 2023).
Where two headings read alike, the source gives them in different places. Starred links: 1 amine or outer side, 2 acyl side, 3 side chain; linkers in the order of their positions; H or OH if unused. Positions of bridges follow the written chain, without caps; N, C: chain ends. Non-standard residues stand in square brackets, D forms with d. Residues, ends and D or L forms follow the SMILES beside them. Triazole bridges read from a SMILES are 1,4-linked. *: point of attachment. DOTA = O=C(O)CN1CCN(CC(=O)O)CCN(CC(=O)*)CCN(CC(=O)O)CC1; Pteroyl = Nc1nc2ncc(CNc3ccc(C(=O)*)cc3)nc2c(=O)[nH]1; Biotin = O=C1N[C@H]2[C@H](CS[C@H]2CCCCC(=O)*)N1; PEG10 = NCCOCCOCCOCCOCCOCCOCCOCCOCCOCCOCCC(=O)O; Lys(N3) = [N-]=[N+]=NCCCC[C@H](N)C(=O)O; γGlu = O=C(O)[C@H](CCC(=O)[*:2])N[*:1]; Pra = C#CC[C@H](N)C(=O)O

What was measured:
[1] = test system: OVCAR3 cells; test: Cell penetration / internalization assays (acid wash flow cytometry, fluorescence microscopy); assay type: cell-based, human
Method: FIG. 10 is a diagram of an assay for assessing cell internalization FOLR1 heterobiligands.
The folate-hshta (SEQ ID NO:6) Nterm heterobiligand was also evaluated in cell penetration imaging assays (FIG. 10). OVCAR3 and PC-3 cells were incubated with the test article at 37° C. for 1 hour. Flow cytometry analysis of the resulting treated cells indicated strong binding to FOLR1 (+) cells. To understand the proportion bound to the surface but not internalized, the cells were briefly washed with acid to liberate the non-internalized peptide.
To further understand intracellular trafficking of the Nterm heterobiligand, these dye-labeled compounds were imaged by fluorescence microscopy. The cells were counterstained with BioTracker 490, which stains membranes, and Rab5a+, an endosomal stain. […] Low levels of DyLight650 was detected within PC-3 (FOLR1−) cells. Taken together, internalization of the heterobiligand appears to be receptor driven and selective for FOLR1 (+) cells.

[2] = target: T1, FOLR1 (Homo sapiens, UniProt P15328); test: ELISA assay of FOLR1 binding
From the text: FIG. 5 is a diagram of ELISA assay of FOLR1 binding of heterobiligands.

[3] = test system: OVCAR3 cells; test: Competition at the cellular level with exogenous folic acid (flow cytometry); assay type: cell-based, human
From the text: Competition at the cellular level was also probed.

[4] = test system: OVCAR3 FOLR1+ cells (PC-3 FOLR1− cells as negative line); test: Flow cytometry binding to FOLR1 (+) and FOLR1 (−) cell lines; assay type: cell-based, human; settings: OVCAR3 vs PC-3, flow cytometry
Method: Both the kyeet (SEQ ID NO:9) and hshta (SEQ ID NO:6)-derived biligands were tested by flow cytometry for binding to FOLR1 (+) and FOLR1 (−) cell lines (FIGS. 6 and 7). The human ovarian adenocarcinoma-derived cell line OVCAR3 has robust FOLR1 expression and was selected as the FOLR1 (+) cell line. The human prostate adenocarcinoma-derived cell line PC-3 was selected as a FOLR1 (−) cell line.

[5] = target: T1, FOLR1; test: Folic acid competition ELISA; assay type: binding
Method: A competition experiment was conducted to further understand the binding kinetics of the lead heterobiligand (folate-hshta (SEQ ID NO:6) Nterm heterobiligand).

[6] = target: mouse recombinant FOLR1 (rMuFOLR1) (Mus musculus, UniProt P35846); test: ELISA cross reactivity with mouse recombinant FOLR1; assay type: binding; settings: cross reactivity experiment
From the text: Further evaluation of the folate-hshta (SEQ ID NO:6) Nterm heterobiligand depended on cross reactivity with mouse recombinant FOLR1 (rMuFOLR1). The heterobiligand binds to both species' variants of FOLR1 with high affinity. This observation was expected given the high homology between the two variants (approximately 92%).

[7] = human plasma
Method: (§1) Plasma was thawed in a 37° C. water bath. Residual clots were removed via centrifugation at 4000 rpm for 5 minutes. The pH of the plasma was adjusted to 7.4 if required. Test articles were diluted to 100 μM by diluting a 1 mM working solution (in DMSO) with 45% methanol in water. To 98 μL of plasma was added 2 μL of the 100 μM solution, resulting in 2 μM final concentration of the test article. Samples were incubated at 37° C. in a water bath. At the indicated time points (0, 10, 30, 60, 120 minutes) 100 μL of 4% H3PO4 was added followed by 800 μL of stop solution (200 ng/mL tolbutamide and 200 ng/mL labetalol in 100% acetonitrile). The samples were centrifuged and the plasma protein-free supernatant (100 μL) was subjected to LC-MS/MS analysis.

[8] = human plasma; remark: listed apart in the source
Method: as §1

[9] = mouse
Method: as §1

T1 sequence (P15328 25-234): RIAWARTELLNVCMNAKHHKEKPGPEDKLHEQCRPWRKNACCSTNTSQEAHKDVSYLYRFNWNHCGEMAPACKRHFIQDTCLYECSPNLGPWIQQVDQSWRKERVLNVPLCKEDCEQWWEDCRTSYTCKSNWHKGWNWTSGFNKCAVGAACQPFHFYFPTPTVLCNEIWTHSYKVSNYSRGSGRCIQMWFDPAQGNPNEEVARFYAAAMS
mouse recombinant FOLR1 (rMuFOLR1), sequence (P35846 25-232): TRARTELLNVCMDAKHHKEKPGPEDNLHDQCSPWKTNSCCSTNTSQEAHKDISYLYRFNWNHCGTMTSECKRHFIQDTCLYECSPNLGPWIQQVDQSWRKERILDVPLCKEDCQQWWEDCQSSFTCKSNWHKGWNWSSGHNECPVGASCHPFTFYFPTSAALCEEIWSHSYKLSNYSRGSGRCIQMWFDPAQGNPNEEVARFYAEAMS

greater affinity than folate itself ([2]; ELISA) | EC50 ([2]; biotin-labeled constructs with MPBA or DOTA tag, read-out: EC50) | EC50 ([2]; cross reactivity experiment, read-out: Ec50, Human FOLR1) | binding affinity of the heterobiligand with folic acid doped in ([5]; folic acid from 0 to 500 nM) | binding of the heterobiligand with folic acid doped in ([5]; folic acid greater than 500 nM) | EC50 [6] | SMILES | percentage of positively stained cells ([1]; OVCAR3, 37° C. 1 hour, before acid treatment) | percentage of positively stained cells ([1]; OVCAR3, following acid treatment) | percentage of OVCAR3 cells binding ([3]; 0.1 μg/mL folate) | percentage of OVCAR3 cells binding ([3]; no folate) | binding selectivity for FOLR1 (+) cells over FOLR1 (−) cells [4] | Plasma Stability (t 1/2), Hu [7] | half-life [8] | Plasma Stability (t 1/2), Mu [9]
~30 fold | 0.065 nM | 0.35 nM | virtually unchanged | partially compete away | 0.33 nM | C[C@H](O)[C@H]1NC(=O)[C@@H](Cc2c[nH]cn2)NC(=O)[C@@H](CO)NC(=O)[C@@H](Cc2c[nH]cn2)NC(=O)[C@@H](NC(=O)CC[C@H](NC(=O)c2ccc(NCc3cnc4nc(N)[nH]c(=O)c4n3)cc2)C(=O)O)Cc2cn(nn2)CCCC[C@@H](C(=O)NCCOCCOCCOCCOCCOCCOCCOCCOCCOCCOCCC(=O)NCCOCCOCCOCCOCCOCCOCCOCCOCCOCCOCCC(=O)N[C@@H](CCCCNC(=O)CCCC[C@@H]2SC[C@@H]3NC(=O)N[C@@H]32)C(N)=O)NC(=O)[C@@H](C)NC1=O [Folate-hshta Nterm, Folate-hshta-PEG10-PEG10-K(Biotin)] ({Pteroyl-γGlu}-[Pra][dH][dS][dH][dT][dA][Lys(N3)][PEG10][PEG10]K(Biotin)-NH2; triazole 1-7) | 73.4% | 54.2% | 57% | 76.6% | high selectivity | – | – | –
– | – | – | – | – | – | C[C@H](O)[C@H]1NC(=O)[C@@H](Cc2cnc[nH]2)NC(=O)[C@@H](CO)NC(=O)[C@@H](Cc2cnc[nH]2)NC(=O)[C@@H](NC(=O)CC[C@H](NC(=O)c2ccc(NCc3cnc4nc(N)[nH]c(=O)c4n3)cc2)C(=O)O)Cc2cn(nn2)CCCC[C@@H](C(=O)NCC(=O)N[C@@H](Cc2ccccc2)C(=O)N[C@@H](CCCCNC(=O)CN2CCN(CC(=O)O)CCN(CC(=O)O)CCN(CC(=O)O)CC2)C(=O)O)NC(=O)[C@@H](C)NC1=O [compound 7327, folate-hshta-Gly-Phe-Lys(DOTA)] ({Pteroyl-γGlu}-[Pra][dH][dS][dH][dT][dA][Lys(N3)]GFK(DOTA)-OH; triazole 1-7) | – | – | – | – | – | Hu: >6937.7 min | > 115 h | Mu: >6937.7 min
